Data reported in patent US20240158446A1, “CYCLIC COMPOUND HAVING SELECTIVE INHIBITORY ACTION ON KRAS OVER HRAS AND NRAS” (CHUGAI SEIYAKU KABUSHIKI KAISHA, priority 2021, published 2024).

Tests used:
[1] = target: GDP-bound HRAS wild-type protein (Homo sapiens, UniProt P01112); test: Binding to HRAS by surface plasmon resonance (SPR), Single Cycle Kinetics; conditions: SPR, GDP-bound HRAS wild-type protein vs GDP-bound KRAS wild-type protein
[2] = target: GDP-bound NRAS wild-type protein (Homo sapiens, UniProt P01111); test: Binding to NRAS by surface plasmon resonance (SPR), Single Cycle Kinetics; conditions: SPR, GDP-bound NRAS wild-type protein vs GDP-bound KRAS wild-type protein
GDP-bound NRAS wild-type protein, sequence (P01111 whole entry): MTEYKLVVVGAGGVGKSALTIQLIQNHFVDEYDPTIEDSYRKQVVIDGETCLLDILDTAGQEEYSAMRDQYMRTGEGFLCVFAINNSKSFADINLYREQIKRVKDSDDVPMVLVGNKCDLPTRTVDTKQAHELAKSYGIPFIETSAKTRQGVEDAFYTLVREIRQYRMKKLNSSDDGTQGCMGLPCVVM

[3] = target: GDP-bound KRAS wild-type protein (Homo sapiens, UniProt P01116); test: Binding to KRAS by surface plasmon resonance (SPR), Single Cycle Kinetics; conditions: SPR, Single Cycle Kinetics, GDP-bound KRAS wild-type protein; read-out: KRAS KD
GDP-bound KRAS wild-type protein, sequence (P01116 whole entry): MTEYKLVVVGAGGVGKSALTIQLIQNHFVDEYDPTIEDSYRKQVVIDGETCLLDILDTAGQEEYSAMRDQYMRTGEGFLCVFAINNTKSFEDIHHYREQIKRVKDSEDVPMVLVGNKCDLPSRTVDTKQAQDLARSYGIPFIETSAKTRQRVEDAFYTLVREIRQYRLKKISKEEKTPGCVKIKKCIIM

GDP-bound HRAS wild-type protein, sequence (P01112 whole entry): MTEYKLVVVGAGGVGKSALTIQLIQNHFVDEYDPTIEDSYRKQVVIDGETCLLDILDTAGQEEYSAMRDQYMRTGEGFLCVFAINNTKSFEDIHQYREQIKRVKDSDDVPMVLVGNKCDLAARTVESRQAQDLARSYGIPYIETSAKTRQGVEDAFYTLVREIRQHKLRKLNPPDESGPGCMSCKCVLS

Row | Structure (SMILES) | HRAS/KRAS (ratio of KD value for HRAS to KD value for KRAS) [1] | NRAS/KRAS (ratio of KD value for NRAS to KD value for KRAS) [2] | Kd [3]
1 | CCO[C@@H]1C[C@H]2C(=O)NC3(CCC3)C(=O)N(C)[C@@H](C3CCCC3)C(=O)N(C)[C@H](C(=O)N3CCOCC3)CC(=O)N(C)[C@@H](CC)C(=O)N[C@@H]([C@@H](C)CC)C(=O)N3CC[C@H]3C(=O)N(C)[C@H]3CC(C)=CCN(C3=O)[C@@H](Cc3ccc(C(F)(F)F)cc3)C(=O)N(C)CC(=O)N[C@@H](CCc3cc(F)c(C(F)(F)F)c(F)c3)C(=O)N2C1 [PP1042] | C (A compound having a KD ratio of 0.1 or more and less than 3 is denoted as C) | C (A compound having a KD ratio of 0.1 or more and less than 3 is denoted as C) | 1.3 nM
2 | CCO[C@@H]1C[C@H]2C(=O)NC3(CCCC3)C(=O)N(C)[C@@H](C3CCCC3)C(=O)N(C)[C@H](C(=O)N3CCOCC3)CC(=O)N(C)[C@@H](CC)C(=O)N[C@@H]([C@@H](C)CC)C(=O)N(C)CC(=O)N(C)[C@H]3CC(C)=CCN(C3=O)[C@@H](Cc3ccc(C(F)(F)F)cc3)C(=O)N(C)CC(=O)N[C@@H](CCc3cc(F)c(C(F)(F)F)c(F)c3)C(=O)N2C1 [PP1043] | C (A compound having a KD ratio of 0.1 or more and less than 3 is denoted as C) | C (A compound having a KD ratio of 0.1 or more and less than 3 is denoted as C) | 2.4 nM
3 | CCO[C@@H]1C[C@H]2C(=O)NC3(CCC3)C(=O)N(C)[C@@H](C3CCCC3)C(=O)N(C)[C@H](C(=O)N3CCOCC3)CC(=O)N(CC)[C@@H](CC(C)C)C(=O)N[C@@H]([C@@H](C)CC)C(=O)N(C)CC(=O)N(C)[C@H]3CC(C)=CCN(C3=O)[C@@H](Cc3ccc(C(F)(F)F)cc3)C(=O)N(C)CC(=O)N[C@@H](CCc3cc(F)c(C(F)(F)F)c(F)c3)C(=O)N2C1 [PP1044] | C (A compound having a KD ratio of 0.1 or more and less than 3 is denoted as C) | C (A compound having a KD ratio of 0.1 or more and less than 3 is denoted as C) | 1.8 nM
4 | CCO[C@@H]1C[C@H]2C(=O)NC3(CCCC3)C(=O)N(C)[C@@H](C3CCCC3)C(=O)N(C)[C@H](C(=O)N(C)C)CC(=O)N(C)[C@@H](CC(C)C)C(=O)N[C@@H]([C@@H](C)CC)C(=O)N(C)CC(=O)N(C)[C@H]3CC(C)=C(C)CN(C3=O)[C@@H](Cc3ccc(C(F)(F)F)cc3)C(=O)N(C)CC(=O)N[C@@H](CCc3cc(F)c(C(F)(F)F)c(F)c3)C(=O)N2C1 [PP1045] | C (A compound having a KD ratio of 0.1 or more and less than 3 is denoted as C) | C (A compound having a KD ratio of 0.1 or more and less than 3 is denoted as C) | 1.7 nM
5 | CCO[C@@H]1C[C@H]2C(=O)NC3(CCC3)C(=O)N(C)[C@@H](C3CCCC3)C(=O)N(C)[C@H](C(=O)N(C)C)CC(=O)N(C)[C@@H](CC(C)C)C(=O)N[C@@H]([C@@H](C)CC)C(=O)N3CC[C@H]3C(=O)N(C)[C@H]3CC(C)=C(C)CN(C3=O)[C@@H](Cc3ccc(C(F)(F)F)cc3)C(=O)N(C)CC(=O)N[C@@H](CCc3cc(F)c(C(F)(F)F)c(F)c3)C(=O)N2C1 [PP1047] | C (A compound having a KD ratio of 0.1 or more and less than 3 is denoted as C) | C (A compound having a KD ratio of 0.1 or more and less than 3 is denoted as C) | 0.85 nM
6 | CCO[C@@H]1C[C@H]2C(=O)NC3(CCC3)C(=O)N(C)[C@@H](C3CCCC3)C(=O)N(C)[C@H](C(=O)N(C)C)CC(=O)N(C)[C@@H](CC)C(=O)N[C@@H]([C@@H](C)CC)C(=O)N3CC[C@H]3C(=O)N(C)[C@H]3CC(C)=C(C)CN(C3=O)[C@@H](Cc3ccc(C(F)(F)F)cc3)C(=O)N(C)CC(=O)N[C@@H](CCc3cc(F)c(C(F)(F)F)c(F)c3)C(=O)N2C1 [PP1049] | C (A compound having a KD ratio of 0.1 or more and less than 3 is denoted as C) | C (A compound having a KD ratio of 0.1 or more and less than 3 is denoted as C) | 0.91 nM
7 | CCO[C@@H]1C[C@H]2C(=O)NC3(CCCC3)C(=O)N(C)[C@@H](C3CCCC3)C(=O)N(C)[C@H](C(=O)N(C)C)CC(=O)N(C)[C@@H](CC)C(=O)N[C@@H]([C@@H](C)CC)C(=O)N(C)CC(=O)N(C)[C@H]3CC(C)=C(C)CN(C3=O)[C@@H](Cc3ccc(C(F)(F)F)cc3)C(=O)N(C)CC(=O)N[C@@H](CCc3cc(F)c(C(F)(F)F)c(F)c3)C(=O)N2C1 [PP1050] | C (A compound having a KD ratio of 0.1 or more and less than 3 is denoted as C) | C (A compound having a KD ratio of 0.1 or more and less than 3 is denoted as C) | 0.94 nM
8 | CCO[C@@H]1C[C@H]2C(=O)NC3(CCC3)C(=O)N(C)[C@@H](C3CCCC3)C(=O)N(C)[C@H](C(=O)N(C)C)CC(=O)N(C)[C@@H](CC)C(=O)N[C@@H]([C@@H](C)CC)C(=O)N(CC)CC(=O)N(C)[C@H]3C/C=C\CCN(C3=O)[C@@H](Cc3ccc(C(F)(F)F)cc3)C(=O)N(C)CC(=O)N[C@@H](CCc3cc(F)c(C(F)(F)F)c(F)c3)C(=O)N2C1 [PP1052] | A (a compound having 10 or more and less than 20 is denoted as A) | A (a compound having 10 or more and less than 20 is denoted as A) | 0.25 nM
9 | CCCN1CC(=O)N(C)[C@H]2C/C=C\CCN(C2=O)[C@@H](Cc2ccc(C(F)(F)F)cc2)C(=O)N(C)CC(=O)N[C@@H](CCc2cc(F)c(C(F)(F)F)c(F)c2)C(=O)N2C[C@H](OCC)C[C@H]2C(=O)NC2(CCC2)C(=O)N(C)[C@@H](C2CCCC2)C(=O)N(C)[C@H](C(=O)N(C)C)CC(=O)N(C)[C@@H](CC)C(=O)N[C@@H]([C@@H](C)CC)C1=O [PP1053] | A (a compound having 10 or more and less than 20 is denoted as A) | A (a compound having 10 or more and less than 20 is denoted as A) | 0.23 nM
10 | CCO[C@@H]1C[C@H]2C(=O)NC3(CCC3)C(=O)N(C)[C@@H](C3CCCC3)C(=O)N(C)[C@H](C(=O)N(C)C)CC(=O)N(C)[C@@H](CC)C(=O)N[C@@H]([C@@H](C)CC)C(=O)N(C)[C@@H](C)C(=O)N(C)[C@H]3C/C=C\CCN(C3=O)[C@@H](Cc3ccc(C(F)(F)F)cc3)C(=O)N(C)CC(=O)N[C@@H](CCc3cc(F)c(C(F)(F)F)c(F)c3)C(=O)N2C1 [PP1054] | B (a compound having 3 or more and less than 10 is denoted as B) | A (a compound having 10 or more and less than 20 is denoted as A) | 3.9 nM
11 | CCO[C@@H]1C[C@H]2C(=O)NC3(CCC3)C(=O)N(C)[C@@H](C3CCCC3)C(=O)N(C)[C@H](C(=O)N(C)C)CC(=O)N(C)[C@@H](CC)C(=O)N[C@@H]([C@@H](C)CC)C(=O)N3C[C@H](OCC)C[C@H]3C(=O)N(C)[C@H]3C/C=C\CCN(C3=O)[C@@H](Cc3ccc(C(F)(F)F)cc3)C(=O)N(C)CC(=O)N[C@@H](CCc3cc(F)c(C(F)(F)F)c(F)c3)C(=O)N2C1 [PP1057] | B (a compound having 3 or more and less than 10 is denoted as B) | A (a compound having 10 or more and less than 20 is denoted as A) | 0.31 nM
12 | CCO[C@@H]1C[C@H]2C(=O)NC3(CCC3)C(=O)N(C)[C@@H](C3CCCC3)C(=O)N(C)[C@H](C(=O)N(C)C)CC(=O)N(C)[C@@H](CC)C(=O)N[C@@H]([C@@H](C)CC)C(=O)N3CCSC[C@H]3C(=O)N(C)[C@H]3C/C=C\CCN(C3=O)[C@@H](Cc3ccc(C(F)(F)F)cc3)C(=O)N(C)CC(=O)N[C@@H](CCc3cc(F)c(C(F)(F)F)c(F)c3)C(=O)N2C1 [PP1060] | A (a compound having 10 or more and less than 20 is denoted as A) | A (a compound having 10 or more and less than 20 is denoted as A) | 2.6 nM
13 | CCO[C@@H]1C[C@H]2C(=O)NC3(CCC3)C(=O)N(C)[C@@H](C3CCCC3)C(=O)N(C)[C@H](C(=O)N(C)C)CC(=O)N(C)[C@@H](CC)C(=O)N[C@@H]([C@@H](C)CC)C(=O)N[C@@H](C)C(=O)N(C)[C@H]3C/C=C\CCN(C3=O)[C@@H](Cc3ccc(C(F)(F)F)cc3)C(=O)N(C)CC(=O)N[C@@H](CCc3cc(F)c(C(F)(F)F)c(F)c3)C(=O)N2C1 [PP1065] | B (a compound having 3 or more and less than 10 is denoted as B) | A (a compound having 10 or more and less than 20 is denoted as A) | 0.45 nM
14 | CC[C@H](C)[C@@H]1NC(=O)[C@H](CC(C)C)N(C)C(=O)C[C@@H](C(=O)N2CCOCC2)N(C)C(=O)[C@H](C2CCCC2)N(C)C(=O)C2(CCC2)NC(=O)[C@@H]2[C@@H](OC)CCN2C(=O)[C@H](CCc2cc(F)c(C(F)(F)F)c(F)c2)NC(=O)CN(C)C(=O)[C@H](Cc2ccc(C(F)(F)F)cc2)N2CCCCC[C@@H](C2=O)N(C)C(=O)CN(C)C1=O [PP1067] | B (a compound having 3 or more and less than 10 is denoted as B) | B (a compound having 3 or more and less than 10 is denoted as B) | 2.9 nM
15 | CCO[C@H]1CCN2C(=O)[C@H](CCc3cc(F)c(C(F)(F)F)c(F)c3)NC(=O)CN(C)C(=O)[C@H](Cc3ccc(C(F)(F)F)cc3)N3CCCCC[C@@H](C3=O)N(C)C(=O)CN(C)C(=O)[C@H]([C@@H](C)CC)NC(=O)[C@H](CC(C)C)N(C)C(=O)C[C@@H](C(=O)N3CCOCC3)N(C)C(=O)[C@H](C3CCCC3)N(C)C(=O)C3(CCC3)NC(=O)[C@H]12 [PP1068] | B (a compound having 3 or more and less than 10 is denoted as B) | A (a compound having 10 or more and less than 20 is denoted as A) | 1.1 nM
